Consider seven compounds from ChEMBL document CHEMBL1201862, “PubChem BioAssay data set” (2004).

Assay [1] concerns the target T1, Voltage-gated N-type calcium channel alpha-1B subunit/Amyloid beta A4 precursor protein-binding family A member 1 (Homo sapiens, UniProt Q00975+Q02410). Format: protein assay.
A further assay addresses Large T antigen (Simian virus 40, UniProt P03070). Format: functional, Betapolyomavirus macacae.
In assay [2] the target is T2, Estrogen receptor (Homo sapiens, UniProt P03372).
T2 sequence (P03372 whole entry): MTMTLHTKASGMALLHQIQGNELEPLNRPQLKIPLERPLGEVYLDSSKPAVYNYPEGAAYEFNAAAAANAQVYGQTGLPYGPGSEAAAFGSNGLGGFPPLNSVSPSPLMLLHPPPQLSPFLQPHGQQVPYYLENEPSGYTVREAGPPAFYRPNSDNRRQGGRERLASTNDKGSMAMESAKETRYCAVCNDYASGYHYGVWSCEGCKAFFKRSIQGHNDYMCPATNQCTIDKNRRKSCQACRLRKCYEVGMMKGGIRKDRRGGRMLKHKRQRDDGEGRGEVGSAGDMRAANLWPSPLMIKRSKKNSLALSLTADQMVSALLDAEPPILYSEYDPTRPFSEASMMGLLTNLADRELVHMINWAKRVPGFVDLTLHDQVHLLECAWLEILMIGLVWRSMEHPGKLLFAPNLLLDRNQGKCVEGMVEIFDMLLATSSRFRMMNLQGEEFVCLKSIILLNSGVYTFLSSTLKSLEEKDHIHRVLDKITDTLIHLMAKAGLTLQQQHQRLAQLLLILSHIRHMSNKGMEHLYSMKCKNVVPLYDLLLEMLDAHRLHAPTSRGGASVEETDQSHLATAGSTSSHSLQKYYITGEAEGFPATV

In assay [3] the target is T1, Voltage-gated N-type calcium channel alpha-1B subunit/Amyloid beta A4 precursor protein-binding family A member 1. Format: protein assay. The source holds these as a separate data set.
In assay [4] the target is Induced myeloid leukemia cell differentiation protein Mcl-1 (Homo sapiens, UniProt Q07820). As to the kind of experiment: MCL1-BIM BH3 interaction inhibitors, dose response, biochemical, fluorescence polarization, BIM-BH3 peptide, 1536-well (AID 2217).
For a further assay, the target named is Estrogen receptor beta (Homo sapiens, UniProt Q92731).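 Note: recombinant ER-beta bound to coactivator SRC1 peptide in presence of estradiol agonist; inhibitors block coactivator peptide binding and lower the FRET signal.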
The target in the next assay is Bcl-2-like protein 1 (Homo sapiens, UniProt Q07817). As to the kind of experiment: BCL-XL inhibitors, dose response, selectivity assay for MCL1 inhibitor project, biochemical, fluorescence polarization, 1536-well (AID 2218).
Assay [5] has as its system Streptococcus sp. 'group A'. As to the kind of experiment: growth inhibition of control SK(-) GAS strain, dose response, counter-screen for streptokinase expression inhibitor project, luminescence, kanamycin, BacTiterGlo, confirmation (AID 1900). Format: functional, organism-based.
For a further assay, the target named is T3, Streptokinase A (Streptococcus pyogenes serotype M1, UniProt P10520).
T3 sequence (P10520 whole entry): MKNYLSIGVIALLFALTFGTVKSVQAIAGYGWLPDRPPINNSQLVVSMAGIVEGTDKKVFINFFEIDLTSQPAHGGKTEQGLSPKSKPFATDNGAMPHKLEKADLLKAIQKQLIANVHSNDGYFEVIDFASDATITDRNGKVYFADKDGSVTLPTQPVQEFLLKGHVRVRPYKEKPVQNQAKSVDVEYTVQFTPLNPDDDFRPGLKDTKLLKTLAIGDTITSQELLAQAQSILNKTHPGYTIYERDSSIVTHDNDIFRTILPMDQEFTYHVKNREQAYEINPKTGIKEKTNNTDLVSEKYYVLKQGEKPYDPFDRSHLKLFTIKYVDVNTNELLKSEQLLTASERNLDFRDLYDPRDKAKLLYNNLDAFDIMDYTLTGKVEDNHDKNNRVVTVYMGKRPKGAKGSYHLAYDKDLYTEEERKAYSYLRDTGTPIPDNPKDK
As to the kind of experiment: S. pyogenes streptokinase expression inhibitors, potency, dose response, plasminogen activation absorbance, OD405 (AID 1914).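 Note: secreted streptokinase activity via plasminogen activation per viability signal from cell pellet.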 Format: functional, Streptococcus pyogenes M1 GAS.

For assay [6], the target named is T2, Estrogen receptor. The assay is described as follows: potentiators of ERα–SRC-1 coactivator binding, dose response, biochemical, TR-FRET, ERα LBD (AID 737).
The next assay deals with Streptococcus. The assay is described as follows: Group A Streptococcus viability loss, dose response, counter-screen for streptokinase expression inhibitor project, luminescence, BacTiterGlo (AID 1915).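 Note: potency for reduction of bacterial viability or growth.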 Format: functional, organism-based.
For a further assay, the target named is NADPH oxidase 1 (Homo sapiens, UniProt Q9Y5S8). Format: functional, cell-based.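 Note: Cell-based assay with luminescence read-out, IC50 derived from inhibitor dose-response curves; intracellular ROS from endogenous NOX1 in intact HT29 colon cancer cells; potency of inhibitors that lower the ROS luminescence signal.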
The nature of assay [7]: A Cell Based Secondary Assay To Explore Cytotoxicity of Compounds that Sensitize Mycobacterium Tuberculosis to Beta-Lactam Antibiotics. Format: functional.
Assay [8] in a line: Luminescence Cell-Based Dose-Confimation HTS to Identify Inhibitors of 5'UTR Stem-Loop Driven Alpha-Synuclein mRNA Translation in H4 Neuroglioblastoma Cells. [Related pubchem assays: 1827 (Project Summary), 1813 (Primary HTS)]. Format: functional.
A short description of assay [9]: M. tuberculosis H37Rv growth inhibitors, H37Rv strain (AID 1626). Format: functional.
For assay [10], the target named is Sphingosine 1-phosphate receptor 2 (Homo sapiens, UniProt O95136). The assay is described as follows: Dose Response Cell Based Assay for Agonists of the S1P2 Receptor of Purchased Analogues. [Related pubchem assays: 729, 843, 854, 736 ]. Format: functional.

Molecules are shown by their SMILES. Activity calls are given as the source filed them.

T1 sequence (Q00975 whole entry): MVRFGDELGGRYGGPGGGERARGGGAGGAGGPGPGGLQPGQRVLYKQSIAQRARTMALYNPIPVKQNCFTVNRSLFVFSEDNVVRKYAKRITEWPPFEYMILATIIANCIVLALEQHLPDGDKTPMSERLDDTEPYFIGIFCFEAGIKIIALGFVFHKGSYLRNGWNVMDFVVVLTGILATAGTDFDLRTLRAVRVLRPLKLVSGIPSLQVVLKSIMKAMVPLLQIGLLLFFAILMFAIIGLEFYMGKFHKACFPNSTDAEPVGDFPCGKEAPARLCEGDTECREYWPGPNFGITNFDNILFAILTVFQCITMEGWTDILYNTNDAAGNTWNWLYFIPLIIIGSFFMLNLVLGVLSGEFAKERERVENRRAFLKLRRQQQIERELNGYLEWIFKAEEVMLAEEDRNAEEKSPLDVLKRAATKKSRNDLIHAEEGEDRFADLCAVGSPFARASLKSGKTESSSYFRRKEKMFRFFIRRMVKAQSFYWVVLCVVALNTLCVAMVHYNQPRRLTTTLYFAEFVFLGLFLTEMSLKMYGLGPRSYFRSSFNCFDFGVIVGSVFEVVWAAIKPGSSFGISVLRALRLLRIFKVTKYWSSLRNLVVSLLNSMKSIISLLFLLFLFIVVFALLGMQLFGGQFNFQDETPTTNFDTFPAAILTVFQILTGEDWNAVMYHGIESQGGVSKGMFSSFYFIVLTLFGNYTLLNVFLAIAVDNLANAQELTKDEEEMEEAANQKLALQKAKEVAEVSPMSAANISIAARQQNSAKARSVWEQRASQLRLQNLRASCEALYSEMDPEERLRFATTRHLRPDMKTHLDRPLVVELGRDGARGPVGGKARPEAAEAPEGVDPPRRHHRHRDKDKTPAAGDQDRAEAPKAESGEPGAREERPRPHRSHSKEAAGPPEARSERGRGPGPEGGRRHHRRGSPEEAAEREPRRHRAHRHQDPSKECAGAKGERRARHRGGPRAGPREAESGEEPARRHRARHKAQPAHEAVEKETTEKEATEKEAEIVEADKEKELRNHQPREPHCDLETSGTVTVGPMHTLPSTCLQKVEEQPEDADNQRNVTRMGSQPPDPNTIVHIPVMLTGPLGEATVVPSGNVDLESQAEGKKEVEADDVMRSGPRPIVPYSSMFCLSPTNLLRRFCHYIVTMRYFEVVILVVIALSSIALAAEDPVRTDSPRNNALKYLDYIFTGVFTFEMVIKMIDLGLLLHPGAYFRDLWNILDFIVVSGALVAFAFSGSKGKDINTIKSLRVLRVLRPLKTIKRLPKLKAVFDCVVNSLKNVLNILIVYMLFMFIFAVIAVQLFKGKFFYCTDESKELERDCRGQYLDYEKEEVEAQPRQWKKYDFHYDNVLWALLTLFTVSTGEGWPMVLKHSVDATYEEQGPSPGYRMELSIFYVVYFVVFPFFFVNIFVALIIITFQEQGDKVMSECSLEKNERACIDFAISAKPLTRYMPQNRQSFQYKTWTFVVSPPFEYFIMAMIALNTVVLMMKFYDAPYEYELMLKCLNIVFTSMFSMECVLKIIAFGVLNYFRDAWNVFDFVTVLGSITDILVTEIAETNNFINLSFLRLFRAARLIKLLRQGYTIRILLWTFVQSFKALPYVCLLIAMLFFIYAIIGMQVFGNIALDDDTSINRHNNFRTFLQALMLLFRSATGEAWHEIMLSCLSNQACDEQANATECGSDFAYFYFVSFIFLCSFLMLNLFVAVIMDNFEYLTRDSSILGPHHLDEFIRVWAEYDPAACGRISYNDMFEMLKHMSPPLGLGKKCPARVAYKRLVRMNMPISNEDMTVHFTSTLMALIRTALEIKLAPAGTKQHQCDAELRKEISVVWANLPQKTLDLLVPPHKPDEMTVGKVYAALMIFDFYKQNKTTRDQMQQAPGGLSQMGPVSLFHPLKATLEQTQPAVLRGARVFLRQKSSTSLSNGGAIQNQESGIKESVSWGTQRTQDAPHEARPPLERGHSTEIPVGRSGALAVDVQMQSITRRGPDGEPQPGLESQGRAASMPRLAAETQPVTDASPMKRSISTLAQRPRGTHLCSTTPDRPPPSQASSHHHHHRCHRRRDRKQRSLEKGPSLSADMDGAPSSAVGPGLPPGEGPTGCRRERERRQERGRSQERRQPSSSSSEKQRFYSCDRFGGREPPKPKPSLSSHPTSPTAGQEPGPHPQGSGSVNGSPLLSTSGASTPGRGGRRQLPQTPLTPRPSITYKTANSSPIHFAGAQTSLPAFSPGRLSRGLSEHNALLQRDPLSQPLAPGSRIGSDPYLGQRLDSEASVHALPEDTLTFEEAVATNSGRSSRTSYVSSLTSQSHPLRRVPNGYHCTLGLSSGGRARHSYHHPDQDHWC
T1 sequence (Q02410 whole entry): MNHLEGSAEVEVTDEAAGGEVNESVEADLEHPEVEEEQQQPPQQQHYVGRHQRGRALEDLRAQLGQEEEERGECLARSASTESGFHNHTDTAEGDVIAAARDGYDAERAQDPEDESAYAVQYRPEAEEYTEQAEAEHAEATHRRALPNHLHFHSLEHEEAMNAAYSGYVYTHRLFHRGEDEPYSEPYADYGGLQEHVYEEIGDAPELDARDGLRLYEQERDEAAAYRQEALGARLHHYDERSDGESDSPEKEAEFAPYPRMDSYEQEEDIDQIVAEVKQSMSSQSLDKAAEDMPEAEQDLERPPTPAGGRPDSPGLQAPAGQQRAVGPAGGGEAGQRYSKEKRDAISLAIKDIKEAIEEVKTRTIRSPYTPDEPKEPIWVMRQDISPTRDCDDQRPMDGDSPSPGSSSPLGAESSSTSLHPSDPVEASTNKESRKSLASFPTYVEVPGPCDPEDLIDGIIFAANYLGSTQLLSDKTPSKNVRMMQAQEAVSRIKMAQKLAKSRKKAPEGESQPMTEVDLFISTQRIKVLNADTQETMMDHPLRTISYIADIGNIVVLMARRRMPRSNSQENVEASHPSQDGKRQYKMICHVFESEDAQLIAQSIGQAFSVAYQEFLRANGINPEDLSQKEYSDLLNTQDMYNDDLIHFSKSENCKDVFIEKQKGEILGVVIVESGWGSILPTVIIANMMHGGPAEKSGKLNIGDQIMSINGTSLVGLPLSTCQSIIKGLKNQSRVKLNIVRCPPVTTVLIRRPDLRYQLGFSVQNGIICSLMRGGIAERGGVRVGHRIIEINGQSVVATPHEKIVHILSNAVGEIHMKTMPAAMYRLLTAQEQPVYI
Chain of Large T antigen (P03070 whole entry): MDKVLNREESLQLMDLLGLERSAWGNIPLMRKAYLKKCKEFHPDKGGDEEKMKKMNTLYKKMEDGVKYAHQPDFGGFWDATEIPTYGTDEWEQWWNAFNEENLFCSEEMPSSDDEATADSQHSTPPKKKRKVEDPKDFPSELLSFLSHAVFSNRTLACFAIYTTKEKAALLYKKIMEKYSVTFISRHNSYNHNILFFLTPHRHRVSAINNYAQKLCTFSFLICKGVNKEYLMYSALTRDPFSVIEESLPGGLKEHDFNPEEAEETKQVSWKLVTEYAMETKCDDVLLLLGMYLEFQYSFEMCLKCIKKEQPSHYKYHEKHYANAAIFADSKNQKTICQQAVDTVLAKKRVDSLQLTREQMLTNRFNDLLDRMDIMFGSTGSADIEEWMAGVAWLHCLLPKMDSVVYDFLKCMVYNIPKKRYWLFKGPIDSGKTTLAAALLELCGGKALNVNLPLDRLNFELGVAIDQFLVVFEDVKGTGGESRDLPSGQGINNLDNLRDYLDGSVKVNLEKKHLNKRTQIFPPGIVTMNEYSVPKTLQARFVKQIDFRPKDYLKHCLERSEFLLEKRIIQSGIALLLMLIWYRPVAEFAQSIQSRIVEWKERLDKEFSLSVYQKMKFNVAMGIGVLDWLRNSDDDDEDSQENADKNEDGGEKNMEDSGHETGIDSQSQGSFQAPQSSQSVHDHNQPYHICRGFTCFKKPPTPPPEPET
Chain of Bcl-2-like protein 1 (Q07817 whole entry): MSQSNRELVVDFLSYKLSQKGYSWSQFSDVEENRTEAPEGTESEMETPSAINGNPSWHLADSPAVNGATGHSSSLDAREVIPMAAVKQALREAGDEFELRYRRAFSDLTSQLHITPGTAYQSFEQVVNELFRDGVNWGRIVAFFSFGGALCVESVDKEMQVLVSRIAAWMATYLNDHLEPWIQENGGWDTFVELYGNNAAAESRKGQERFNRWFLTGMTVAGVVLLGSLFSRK
Chain of Sphingosine 1-phosphate receptor 2 (O95136 whole entry): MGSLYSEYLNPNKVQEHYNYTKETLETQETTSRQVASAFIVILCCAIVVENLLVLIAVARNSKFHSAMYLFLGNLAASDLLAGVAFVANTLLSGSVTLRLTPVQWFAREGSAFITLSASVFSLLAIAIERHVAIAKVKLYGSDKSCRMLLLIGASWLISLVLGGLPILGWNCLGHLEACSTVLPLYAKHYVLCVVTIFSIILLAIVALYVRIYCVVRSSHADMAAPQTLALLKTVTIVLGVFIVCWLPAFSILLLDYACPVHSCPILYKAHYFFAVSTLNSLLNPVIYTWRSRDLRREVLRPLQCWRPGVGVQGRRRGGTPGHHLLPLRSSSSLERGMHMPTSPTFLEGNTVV
Chain of Induced myeloid leukemia cell differentiation protein Mcl-1 (Q07820 whole entry): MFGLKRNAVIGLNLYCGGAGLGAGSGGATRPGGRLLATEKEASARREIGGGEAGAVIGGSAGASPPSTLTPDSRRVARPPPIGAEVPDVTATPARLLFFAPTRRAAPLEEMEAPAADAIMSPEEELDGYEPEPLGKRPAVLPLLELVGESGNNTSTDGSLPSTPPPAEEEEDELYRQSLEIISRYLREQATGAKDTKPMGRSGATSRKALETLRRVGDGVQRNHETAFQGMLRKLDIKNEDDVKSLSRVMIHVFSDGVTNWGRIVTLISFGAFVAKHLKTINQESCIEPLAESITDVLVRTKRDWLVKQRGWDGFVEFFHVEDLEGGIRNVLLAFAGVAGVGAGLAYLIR

Consider `CCOc1ccc(N2CSC3=C(C#N)C(c4ccco4)CC(=O)N3C2)cc1` (stereo unspecified), for which the IC50 in [1] is 21.6 µM (active); on Large T antigen, 13.8 µM (active); on Estrogen receptor [2], > 50 µM (not active); in assay [3] it was 9.68 µM (active); in assay [4], > 109 µM (not active); against Estrogen receptor beta, > 50 µM (not active). Further, the IC50 against Bcl-2-like protein 1 is > 109 µM (not active).

Take `Cn1nnnc1SCC(=O)Nc1nc(-c2ccccc2)c(-c2ccccc2)o1`: the EC50 in assay [5] is 12.7 µM (active); on Streptokinase A, > 150 µM (not active); on Estrogen receptor [6], 22.2 µM (active); in the assay on Streptococcus, 26 µM (active).

Consider `COc1ccc(-c2nc(-c3ccccc3)c(-c3ccccc3)[nH]2)cc1OC`, for which the IC50 at NADPH oxidase 1 is > 17 µM (not active).

On to `COC(=O)c1c(C)n(-c2ccc(C)cc2)c2ccc(O)cc12`, for which the CC50 in assay [7] is > 40 µM (active).

For the compound `COc1ccc(C)cc1-n1nnnc1SCc1nc(N)nc(N(C)C)n1`, the EC50 in [8] is 20.5 µM (active).

For the compound `COc1ccc(OCCCC(=O)Nc2cccc(SC)c2)cc1`, the IC50 in [9] was > 100 µM (active).

For the compound `CCOC(=O)c1cc(C)n(Cc2ccccc2)c1C`, the EC50 in assay [10] is listed as > 30 µM (not active).
